This is an account of results in patent publication US10183021B2, “sGC stimulators” (Ironwood Pharmaceuticals, Inc., priority 2013, dated 2019).

In assay [1] the test system is Sprague-Dawley rats. Briefly: Blood pressure change in Sprague-Dawley rats (Example 4). The settings on record: conscious male Sprague-Dawley rats, PO, 10 mg/kg. Format: in vivo, rat. The protocol: Male rats (250-350 g body weight, supplied by Harlan Laboratories) were anesthetized with ketamine/xylazine and a heparinized saline fluid filled catheter implanted into the right femoral artery. The catheter was exteriorized between the scapula, capped, and the animal allowed to recover for at least 7 days post surgery prior to any compound testing. Prior to testing animals were maintained on normal diet, with free access to drinking water, under a 12 hour light-dark cycle.
On the day of experimentation, under inhaled isoflurane anesthesia, the catheter was uncapped and connected to a tether (Instech Labs) and pressure transducer (Harvard Apparatus). Blood pressure and heart rate were subsequently captured and analyzed with a dedicated data capture system (PowerLab, ADInstruments). Data sampling rates were set at 1 cycle per second. Once connected, each rat was allowed to recover from anesthesia and baseline blood pressure and heart rate levels were established in these conscious, freely-moving animals. Once baseline was established either vehicle (0.5% methylcellulose or 100% PEG400) or test article was administered orally (PO, 10 mg/kg) and the effects on blood pressure and heart rate monitored for up to 24 hours.
Data are reported as hourly averages and changes in blood pressure are calculated from subtracting individual baseline on an hourly basis.

The target in assay [2] is T1, soluble guanylate cyclase (sGC) (Homo sapiens (Human), UniProt Q02108+Q02153). Briefly: sGC-HEK-cGMP assay with SNP incubation, LC/MS detection (Example 2A). Type of assay: cell-based. The settings on record: HEK293 cells, 10 μM SNP, LC/MS detection; for Emax: 100% = BAY 41-2272 at 10 μM, read-out: HEK assay Emax - unconstrained (%); for EC50: top of curve not fitted to 100%, read-out: HEK assay EC50 - unconstrained. An outline of the steps: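 HEK293 cells with endogenous sGC were pretreated 15 min at 37 °C with 0.5 mM IBMX, then exposed 10 min at 37 °C to compound (added from 0.0001–30 μM solutions) plus SNP (from 10 μM solution). After 0.1 M HCl lysis, cGMP was quantified by LC/MS against a standard curve.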
T1 sequence (Q02153 whole entry): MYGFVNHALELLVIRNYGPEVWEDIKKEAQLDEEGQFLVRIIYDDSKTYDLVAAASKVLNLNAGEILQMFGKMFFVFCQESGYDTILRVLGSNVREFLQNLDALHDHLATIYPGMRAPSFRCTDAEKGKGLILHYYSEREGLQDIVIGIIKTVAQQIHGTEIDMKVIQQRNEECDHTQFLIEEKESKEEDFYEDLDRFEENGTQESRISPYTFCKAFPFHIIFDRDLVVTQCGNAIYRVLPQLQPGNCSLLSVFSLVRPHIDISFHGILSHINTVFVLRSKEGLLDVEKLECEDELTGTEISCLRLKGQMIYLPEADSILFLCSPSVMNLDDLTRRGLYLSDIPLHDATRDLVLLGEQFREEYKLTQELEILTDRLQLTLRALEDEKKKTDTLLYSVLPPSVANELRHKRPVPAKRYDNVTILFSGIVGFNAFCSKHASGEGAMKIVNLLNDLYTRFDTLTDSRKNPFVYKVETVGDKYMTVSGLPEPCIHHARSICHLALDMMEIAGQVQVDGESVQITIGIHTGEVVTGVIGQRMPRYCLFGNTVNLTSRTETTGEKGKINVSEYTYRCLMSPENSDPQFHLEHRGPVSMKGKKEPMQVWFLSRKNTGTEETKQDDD
T1 sequence (Q02108 whole entry): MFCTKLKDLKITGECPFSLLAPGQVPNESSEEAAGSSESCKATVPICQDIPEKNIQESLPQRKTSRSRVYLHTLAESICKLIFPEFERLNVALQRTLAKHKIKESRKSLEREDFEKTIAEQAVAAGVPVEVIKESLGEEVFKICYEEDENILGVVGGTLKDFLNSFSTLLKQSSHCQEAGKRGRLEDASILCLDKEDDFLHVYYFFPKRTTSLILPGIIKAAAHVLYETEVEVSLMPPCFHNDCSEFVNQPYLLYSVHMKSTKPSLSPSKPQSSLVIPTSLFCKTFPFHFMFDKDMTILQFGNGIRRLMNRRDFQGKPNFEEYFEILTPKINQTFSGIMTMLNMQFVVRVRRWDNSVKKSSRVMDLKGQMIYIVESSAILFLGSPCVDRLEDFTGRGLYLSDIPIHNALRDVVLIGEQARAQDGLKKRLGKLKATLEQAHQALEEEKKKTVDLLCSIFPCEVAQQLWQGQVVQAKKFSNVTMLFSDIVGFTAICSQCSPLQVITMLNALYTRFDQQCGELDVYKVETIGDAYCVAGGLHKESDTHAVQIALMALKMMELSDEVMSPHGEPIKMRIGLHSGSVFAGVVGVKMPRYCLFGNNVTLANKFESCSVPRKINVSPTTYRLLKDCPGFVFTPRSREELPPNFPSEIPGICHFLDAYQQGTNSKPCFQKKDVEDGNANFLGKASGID

Assay [3] deals with T1, soluble guanylate cyclase (sGC). In words: sGC-HEK-cGMP assay, new protocol with DETA-NONOate, LC/MS detection (Example 2C). The settings on record: read-out: Absolute EC50 (uM) - binned. Format: cell-based.

Structures are written as SMILES.

In the case of `C[C@H]1CCCN(c2nc(-c3cc(-c4ccon4)n(Cc4ccccc4F)n3)ncc2F)[C@H]1C(=O)O` (racemic) [Compound I-161], in assay [1], the “Rat Mean Arterial Pressure peak change from baseline at 10 mpk” value (shortened to “Rat Mean Arterial Pressure peak change”) is given as “B (B = −20 ≤ peak change from baseline at 10 mpk ≤ −10)”.

In the case of `CC(C)[C@@H](C(=O)O)N(C)c1nc(-c2cc(-c3ccon3)n(Cc3ccccc3F)n2)ncc1F` [Compound I-89], in assay [2], the Emax lay in the range of 60 to 80% and the EC50 is 1 to 100 nM. For the same compound, the EC50 in assay [3] was below 0.1 µM. Also, the “Rat Mean Arterial Pressure peak change” value in assay [1] is reported as “C (C = peak change from baseline at 10 mpk < −20)”.

Regarding `O=C(O)[C@H]1c2ccccc2CCN1c1nc(-c2cc(-c3ccon3)n(Cc3ccccc3F)n2)ncc1F` [Compound I-121], in assay [2], the Emax fell in the range of 60 to 80% and the EC50 was 100 to 500 nM. Besides, in assay [1], the “Rat Mean Arterial Pressure peak change” value is recorded as “A (A = −10 < peak change from baseline at 10 mpk < 0)”.

`CC1(C(=O)O)CCN(c2nc(-c3cc(-c4ccon4)n(Cc4ccccc4F)n3)ncc2F)CC1` [Compound I-124]: in assay [2], the Emax is 60 to 80% and the EC50 is 1 to 100 nM. The “Rat Mean Arterial Pressure peak change” value in assay [1] is on record as “B (B = −20 ≤ peak change from baseline at 10 mpk ≤ −10)”.

With `CN(c1nc(-c2cc(-c3ccon3)n(Cc3ccccc3F)n2)ncc1F)C(C(=O)O)c1ccccc1` (centres unmarked) [Compound I-142], in assay [2], the Emax is 80 to 100% and the EC50 lay within 1 to 100 nM. For the same compound, in assay [1], the “Rat Mean Arterial Pressure peak change” value is listed as “A (A = −10 < peak change from baseline at 10 mpk < 0)”.

With `CC1(C(=O)O)CCN(c2nc(-c3cc(-c4ccon4)n(Cc4ccccc4F)n3)ncc2F)C1` (centres unmarked) [Compound I-143], in assay [2], the Emax lay within 80 to 100% and the EC50 was in the range of 100 to 500 nM. Also, the “Rat Mean Arterial Pressure peak change” value in assay [1] was “B (B = −20 ≤ peak change from baseline at 10 mpk ≤ −10)”.

Consider `O=C(O)C1(C(F)(F)F)CCN(c2nc(-c3cc(-c4ccon4)n(Cc4ccccc4F)n3)ncc2F)C1` (centres unmarked) [Compound I-185], for which, in assay [2], the Emax fell in the range of 100 to 120% and the EC50 is 1000 to 5000 nM. Besides, the “Rat Mean Arterial Pressure peak change” value in assay [1] is “A (A = −10 < peak change from baseline at 10 mpk < 0)”.

Consider `O=C(O)C1(c2ccccc2)CCN(c2nc(-c3cc(-c4ccon4)n(Cc4ccccc4F)n3)ncc2F)CC1` [Compound I-186], for which, in assay [2], the Emax was 80 to 100% and the EC50 was 1 to 100 nM. Besides, the EC50 in assay [3] was below 0.1 µM. The “Rat Mean Arterial Pressure peak change” value in assay [1] is “B (B = −20 ≤ peak change from baseline at 10 mpk ≤ −10)”.

As to `CC(C)[C@@H](C(=O)NS(=O)(=O)C1CC1)N(C)c1nc(-c2cc(-c3ccon3)n(Cc3ccccc3F)n2)ncc1F` [Compound I-187], the Emax in assay [2] was in the range of 80 to 100%. Moreover, the EC50 in assay [2] is 1 to 100 nM; in assay [3] it was below 0.1 µM. The “Rat Mean Arterial Pressure peak change” value in assay [1] is recorded as “A (A = −10 < peak change from baseline at 10 mpk < 0)”.

Regarding `CC(C)C1(C(=O)O)CCN(c2nc(-c3cc(-c4ccon4)n(Cc4ccccc4F)n3)ncc2F)CC1` [Compound I-306], in assay [2], the Emax lay in the range of 80 to 100% and the EC50 lay in the range of 1 to 100 nM. Also, in assay [3], the EC50 was below 0.1 µM. In addition, in assay [1], the “Rat Mean Arterial Pressure peak change” value is listed as “B (B = −20 ≤ peak change from baseline at 10 mpk ≤ −10)”.

As to `OC[C@@H](O)CNc1nc(-c2cc(-c3ccon3)n(Cc3ccccc3F)n2)ncc1F` [Compound I-313], in assay [3], the EC50 is below 0.1 µM. The “Rat Mean Arterial Pressure peak change” value in assay [1] is listed as “C (C = peak change from baseline at 10 mpk < −20)”.

Regarding `OCC(CO)Nc1nc(-c2cc(-c3ccon3)n(Cc3ccccc3F)n2)ncc1F` [Compound I-315], in assay [3], the EC50 is below 0.1 µM. Also, the “Rat Mean Arterial Pressure peak change” value in assay [1] is reported as “C (C = peak change from baseline at 10 mpk < −20)”.

Regarding `OC[C@H](O)CNc1nc(-c2cc(-c3ccon3)n(Cc3ccccc3F)n2)ncc1F` [Compound I-316], the EC50 in assay [3] is below 0.1 µM. The “Rat Mean Arterial Pressure peak change” value in assay [1] is “C (C = peak change from baseline at 10 mpk < −20)”.

Consider `OC(CNc1nc(-c2cc(-c3ccon3)n(Cc3ccccc3F)n2)ncc1F)(C(F)(F)F)C(F)(F)F` [Compound I-324], for which the EC50 in assay [3] was 0.101 to 1 µM. The “Rat Mean Arterial Pressure peak change” value in assay [1] is recorded as “C (C = peak change from baseline at 10 mpk < −20)”.

As for `C[C@H]1CCCN(c2nc(-c3cc(-c4ccon4)n(Cc4ccccc4F)n3)ncc2F)[C@H]1C(=O)O` [Compound I-329], the “Rat Mean Arterial Pressure peak change” value in assay [1] is recorded as “B (B = −20 ≤ peak change from baseline at 10 mpk ≤ −10)”.

For the compound `C[C@@H]1CCCN(c2nc(-c3cc(-c4ccon4)n(Cc4ccccc4F)n3)ncc2F)[C@@H]1C(=O)O` [Compound I-330], in assay [1], the “Rat Mean Arterial Pressure peak change” value is recorded as “C (C = peak change from baseline at 10 mpk < −20)”.

For the compound `OC(CNc1nc(-c2cc(-c3ccon3)n(Cc3ccccc3F)n2)ncc1F)C(F)(F)F` (centres unmarked) [Compound I-337], in assay [3], the EC50 is below 0.1 µM. In addition, the “Rat Mean Arterial Pressure peak change” value in assay [1] is on record as “C (C = peak change from baseline at 10 mpk < −20)”.

As to `C[C@H]1CCCN(c2nc(-c3cc(-c4ccon4)n(Cc4ccccc4F)n3)ncc2F)[C@H]1c1nn[nH]n1` [Compound I-341], the EC50 in assay [3] is below 0.1 µM. For the same compound, the “Rat Mean Arterial Pressure peak change” value in assay [1] is on record as “A (A = −10 < peak change from baseline at 10 mpk < 0)”.

On to `CN(CC1(C(=O)O)CCC1)c1nc(-c2cc(-c3ccon3)n(Cc3ccccc3F)n2)ncc1F` [Compound I-342], for which the EC50 in assay [3] is below 0.1 µM. Further, the “Rat Mean Arterial Pressure peak change” value in assay [1] was “C (C = peak change from baseline at 10 mpk < −20)”.

Consider `CNS(=O)(=O)CCNc1nc(-c2cc(-c3ccon3)n(Cc3ccccc3F)n2)ncc1F` [Compound I-367], for which, in assay [2], the Emax lay in the range of 60 to 80%. The EC50 in assay [2] was 1 to 100 nM; in assay [3], below 0.1 µM.

Consider `CN(CCS(=O)(=O)O)c1nc(-c2cc(-c3ccon3)n(Cc3ccccc3F)n2)ncc1F` [Compound I-368], for which, in assay [2], the Emax was in the range of 20 to 40%. Besides, the EC50 is 100 to 500 nM in assay [2] and above 1 µM in assay [3].

Take `O=C(O)[C@@H]1CCc2ccccc2[C@@H]1Nc1nc(-c2cc(-c3ccon3)n(Cc3ccccc3F)n2)ncc1F` [Compound I-369]: in assay [2], the Emax was in the range of 60 to 80% and the EC50 lay within 1 to 100 nM. Besides, the EC50 in assay [3] was below 0.1 µM.

For the compound `O=C(O)[C@@H]1Cc2ccccc2[C@@H]1Nc1nc(-c2cc(-c3ccon3)n(Cc3ccccc3F)n2)ncc1F` [Compound I-371], in assay [2], the Emax lay within 10 to 20% and the EC50 is above 10000 nM. For the same compound, the EC50 in assay [3] is below 0.1 µM.

As for `CCOC(=O)c1csc(CN(C)c2nc(-c3cc(-c4ccon4)n(Cc4ccccc4F)n3)ncc2F)n1` [Compound I-372], in assay [2], the Emax was in the range of 60 to 80% and the EC50 was 100 to 500 nM. In addition, the EC50 in assay [3] is 0.101 to 1 µM.

As to `CN(CCS(N)(=O)=O)c1nc(-c2cc(-c3ccon3)n(Cc3ccccc3F)n2)ncc1F` [Compound I-374], the Emax in assay [2] is 100 to 120%. In addition, the EC50 in assay [2] is 100 to 500 nM; in assay [3], below 0.1 µM.

In the case of `CN(Cc1nc(C(=O)O)co1)c1nc(-c2cc(-c3ccon3)n(Cc3ccccc3F)n2)ncc1F` [Compound I-375], in assay [2], the Emax is 100 to 120% and the EC50 lay in the range of 100 to 500 nM. Also, in assay [3], the EC50 was above 1 µM.

On to `CN(Cc1nc(C(=O)O)cn1C)c1nc(-c2cc(-c3ccon3)n(Cc3ccccc3F)n2)ncc1F` [Compound I-376], for which, in assay [2], the Emax fell in the range of 100 to 120% and the EC50 lay in the range of 5000 to 10000 nM. Moreover, the EC50 in assay [3] was above 1 µM.

Regarding `O=S(=O)(NC1CN(c2nc(-c3cc(-c4ccon4)n(Cc4ccccc4F)n3)ncc2F)C1)C(F)(F)F` [Compound I-388], in assay [3], the EC50 is below 0.1 µM. In assay [1], the “Rat Mean Arterial Pressure peak change” value is reported as “B (B = −20 ≤ peak change from baseline at 10 mpk ≤ −10)”.

`CC(O)(CNc1nc(-c2cc(-c3ccon3)n(Cc3ccccc3F)n2)ncc1F)C(N)=O` (centres unmarked) [Compound I-389]: the EC50 in assay [3] was below 0.1 µM. Besides, in assay [1], the “Rat Mean Arterial Pressure peak change” value is reported as “C (C = peak change from baseline at 10 mpk < −20)”.

Take `O=C(Nc1ccnc(-c2cc(-c3ccon3)n(Cc3ccccc3F)n2)n1)C(O)(C(F)(F)F)C(F)(F)F` [Compound I-400]: the EC50 in assay [3] lay in the range of 0.101 to 1 µM. For the same compound, the “Rat Mean Arterial Pressure peak change” value in assay [1] is “B (B = −20 ≤ peak change from baseline at 10 mpk ≤ −10)”.

Regarding `NC(=O)C(O)(CNc1nc(-c2cc(-c3ccon3)n(Cc3ccccc3F)n2)ncc1F)C(F)(F)F` (centres unmarked) [Compound I-405], in assay [3], the EC50 fell in the range of 0.101 to 1 µM. For the same compound, in assay [1], the “Rat Mean Arterial Pressure peak change” value is given as “C (C = peak change from baseline at 10 mpk < −20)”.

For the compound `O=C(O)[C@H]1[C@@H](C(F)(F)F)CCCN1c1nc(-c2cc(-c3ccon3)n(Cc3ccccc3F)n2)ncc1F` [Compound I-454], in assay [2], the Emax was 20 to 40% and the EC50 is above 10000 nM. Also, the EC50 in assay [3] was below 0.1 µM.

In the case of `CC[C@H]1CCCN(c2nc(-c3cc(-c4ccon4)n(Cc4ccccc4F)n3)ncc2F)[C@H]1C(=O)O` [Compound I-455], in assay [2], the Emax was in the range of 80 to 100% and the EC50 fell in the range of 1 to 100 nM. Also, the EC50 in assay [3] was below 0.1 µM.

The term Emax denotes the size of the effect at its maximum, as opposed to the concentration needed. As usually defined, the EC50 is the concentration at which the effect is half-maximal.
